According to ChEMBL document CHEMBL3608278 (J Med Chem, 2015):

Columns and labels:
[1] = target: T1, Potassium voltage-gated channel subfamily A member 3 (Homo sapiens, UniProt P22001); assay: cell-based; design: species or system Blood
[2] = target: T1, Potassium voltage-gated channel subfamily A member 3; design: species or system Blood

T1 sequence (P22001 whole entry): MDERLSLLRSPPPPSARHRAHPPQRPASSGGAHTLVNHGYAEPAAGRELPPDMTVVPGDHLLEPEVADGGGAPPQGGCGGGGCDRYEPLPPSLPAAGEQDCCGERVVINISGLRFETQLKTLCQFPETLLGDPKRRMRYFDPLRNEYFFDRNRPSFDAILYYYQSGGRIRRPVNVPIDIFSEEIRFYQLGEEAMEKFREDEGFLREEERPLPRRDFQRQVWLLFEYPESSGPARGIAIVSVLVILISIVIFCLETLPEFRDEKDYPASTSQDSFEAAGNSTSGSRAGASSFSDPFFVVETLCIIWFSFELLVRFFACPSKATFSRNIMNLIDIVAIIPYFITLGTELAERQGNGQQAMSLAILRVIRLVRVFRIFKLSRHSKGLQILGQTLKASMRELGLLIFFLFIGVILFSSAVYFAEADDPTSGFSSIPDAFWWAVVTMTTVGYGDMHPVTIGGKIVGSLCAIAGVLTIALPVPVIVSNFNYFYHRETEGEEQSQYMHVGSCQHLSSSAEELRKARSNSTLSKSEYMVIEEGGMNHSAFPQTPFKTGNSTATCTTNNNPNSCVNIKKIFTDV

SMILES | IC50 [1] | IC50 [2]
CC[C@H](C)[C@@H]1NC(=O)[C@@H](NC(=O)[C@H](CO)NC(=O)[C@@H](N)CCCNC(=N)N)CSSC[C@@H](C(=O)O)NC(=O)[C@H]([C@@H](C)O)NC(=O)CNC(=O)[C@@H]2CSSC[C@@H]3NC(=O)[C@H](CCC(N)=O)NC(=O)[C@H](Cc4ccccc4)NC(=O)[C@H](C)NC(=O)[C@H]([C@@H](C)O)NC(=O)[C@H](CSSC[C@H](NC(=O)[C@H](Cc4ccccc4)NC(=O)[C@H](CO)NC(=O)[C@H](CC(C)C)NC(=O)[C@H](CCCNC(=N)N)NC(=O)[C@H](Cc4ccc(O)cc4)NC(=O)[C@H](CCCCN)NC(=O)[C@H](CCSC)NC(=O)[C@H](CO)NC(=O)[C@H](Cc4cnc[nH]4)NC(=O)[C@H](CCCCN)NC3=O)C(=O)N[C@@H](CCCNC(=N)N)C(=O)N[C@@H](CCCCN)C(=O)N[C@@H]([C@@H](C)O)C(=O)N2)NC(=O)[C@H](CCCNC(=N)N)NC(=O)[C@H](CCC(=O)O)NC(=O)[C@H](CCCCN)NC(=O)[C@@H]2CCCN2C(=O)[C@H]([C@@H](C)CC)NC(=O)[C@H]([C@@H](C)O)NC(=O)[C@H](CC(=O)O)NC1=O | 0.023 nM | 0.055 nM
CC[C@H](C)[C@@H]1NC(=O)[C@@H](NC(=O)[C@H](CO)NC(=O)[C@@H](N)CCCNC(=N)N)CSSC[C@@H](C(=O)O)NC(=O)[C@H]([C@@H](C)O)NC(=O)CNC(=O)[C@@H]2CSSC[C@@H]3NC(=O)[C@H](CCC(N)=O)NC(=O)[C@H](Cc4ccccc4)NC(=O)[C@H](C)NC(=O)[C@H]([C@@H](C)O)NC(=O)[C@H](CSSC[C@H](NC(=O)[C@H](Cc4ccccc4)NC(=O)[C@H](CO)NC(=O)[C@H](CC(C)C)NC(=O)[C@H](CCCNC(=N)N)NC(=O)[C@H](Cc4ccc(O)cc4)NC(=O)[C@H](CCCCN)NC(=O)[C@H](CCSC)NC(=O)[C@H](CO)NC(=O)[C@H](Cc4c[nH]cn4)NC(=O)[C@H](CCCCN)NC3=O)C(=O)N[C@@H](CCCNC(=N)N)C(=O)N[C@@H](CCCCN)C(=O)N[C@@H]([C@@H](C)O)C(=O)N2)NC(=O)[C@H](CCCNC(=N)N)NC(=O)[C@H](CO)NC(=O)[C@H](CCCCN)NC(=O)[C@@H]2CCCN2C(=O)[C@H]([C@@H](C)CC)NC(=O)[C@H](CCC(=O)O)NC(=O)[C@H](CC(=O)O)NC1=O | 0.074 nM | 0.109 nM
CC[C@H](C)[C@@H]1NC(=O)[C@@H](NC(=O)[C@H](CO)NC(=O)[C@@H](N)CCCNC(=N)N)CSSC[C@@H](C(=O)O)NC(=O)[C@H]([C@@H](C)O)NC(=O)CNC(=O)[C@@H]2CSSC[C@@H]3NC(=O)[C@H](CCC(N)=O)NC(=O)[C@H](Cc4ccccc4)NC(=O)[C@H](C)NC(=O)[C@H]([C@@H](C)O)NC(=O)[C@H](CSSC[C@H](NC(=O)[C@H](Cc4ccccc4)NC(=O)[C@H](CO)NC(=O)[C@H](CC(C)C)NC(=O)[C@H](CCCNC(=N)N)NC(=O)[C@H](Cc4ccc(O)cc4)NC(=O)[C@H](CCCCN)NC(=O)[C@H](CCSC)NC(=O)[C@H](CO)NC(=O)[C@H](Cc4c[nH]cn4)NC(=O)[C@H](CCCCN)NC3=O)C(=O)N[C@@H](CCCNC(=N)N)C(=O)N[C@@H](CCCCN)C(=O)N[C@@H](CCCCN)C(=O)N2)NC(=O)[C@H](CCCNC(=N)N)NC(=O)[C@H](CO)NC(=O)[C@H](CCCCN)NC(=O)[C@@H]2CCCN2C(=O)[C@H]([C@@H](C)CC)NC(=O)[C@H]([C@@H](C)O)NC(=O)[C@H](CC(=O)O)NC1=O | 5.98 nM | 27.9 nM
CC[C@H](C)[C@@H]1NC(=O)[C@@H](NC(=O)[C@H](CO)NC(=O)[C@@H](N)CCCNC(=N)N)CSSC[C@@H](C(=O)O)NC(=O)[C@H]([C@@H](C)O)NC(=O)CNC(=O)[C@@H]2CSSC[C@@H]3NC(=O)[C@H](CCC(N)=O)NC(=O)[C@H](Cc4ccccc4)NC(=O)[C@H](C)NC(=O)[C@H]([C@@H](C)O)NC(=O)[C@H](CSSC[C@H](NC(=O)[C@H](Cc4ccccc4)NC(=O)[C@H](CO)NC(=O)[C@H](C)NC(=O)[C@H](CCCNC(=N)N)NC(=O)[C@H](Cc4ccc(O)cc4)NC(=O)[C@H](CCCCN)NC(=O)[C@H](CCSC)NC(=O)[C@H](CO)NC(=O)[C@H](Cc4cnc[nH]4)NC(=O)[C@H](CCCCN)NC3=O)C(=O)N[C@@H](CCCNC(=N)N)C(=O)N[C@@H](CCCCN)C(=O)N[C@@H]([C@@H](C)O)C(=O)N2)NC(=O)[C@H](CCCNC(=N)N)NC(=O)[C@H](CO)NC(=O)[C@H](CCCCN)NC(=O)[C@@H]2CCCN2C(=O)[C@H]([C@@H](C)CC)NC(=O)[C@H]([C@@H](C)O)NC(=O)[C@H](CC(=O)O)NC1=O | 0.199 nM | 0.641 nM
CC[C@H](C)[C@@H]1NC(=O)[C@@H](NC(=O)[C@H](CO)NC(=O)[C@@H](N)CCCNC(=N)N)CSSC[C@@H](C(=O)O)NC(=O)[C@H]([C@@H](C)O)NC(=O)CNC(=O)[C@@H]2CSSC[C@@H]3NC(=O)[C@H](CCC(N)=O)NC(=O)[C@H](Cc4ccccc4)NC(=O)[C@H](C)NC(=O)[C@H]([C@@H](C)O)NC(=O)[C@H](CSSC[C@H](NC(=O)[C@H](Cc4ccccc4)NC(=O)[C@H](CO)NC(=O)[C@H](CCCCN)NC(=O)[C@H](CCCNC(=N)N)NC(=O)[C@H](Cc4ccc(O)cc4)NC(=O)[C@H](CCCCN)NC(=O)[C@H](CCSC)NC(=O)[C@H](CO)NC(=O)[C@H](Cc4cnc[nH]4)NC(=O)[C@H](CCCCN)NC3=O)C(=O)N[C@@H](CCCNC(=N)N)C(=O)N[C@@H](CCCCN)C(=O)N[C@@H]([C@@H](C)O)C(=O)N2)NC(=O)[C@H](CCCNC(=N)N)NC(=O)[C@H](CO)NC(=O)[C@H](CCCCN)NC(=O)[C@@H]2CCCN2C(=O)[C@H]([C@@H](C)CC)NC(=O)[C@H]([C@@H](C)O)NC(=O)[C@H](CC(=O)O)NC1=O | 0.226 nM | 0.366 nM
CC[C@H](C)[C@@H]1NC(=O)[C@@H](NC(=O)[C@H](CO)NC(=O)[C@@H](N)Cc2cccc3ccccc23)CSSC[C@@H](C(=O)O)NC(=O)[C@H]([C@@H](C)O)NC(=O)CNC(=O)[C@@H]2CSSC[C@@H]3NC(=O)[C@H](CCC(N)=O)NC(=O)[C@H](Cc4ccccc4)NC(=O)[C@H](C)NC(=O)[C@H]([C@@H](C)O)NC(=O)[C@H](CSSC[C@H](NC(=O)[C@H](Cc4ccccc4)NC(=O)[C@H](CO)NC(=O)[C@H](CC(C)C)NC(=O)[C@H](CCCNC(=N)N)NC(=O)[C@H](Cc4ccc(O)cc4)NC(=O)[C@H](CCCCN)NC(=O)[C@H](CCSC)NC(=O)[C@H](CO)NC(=O)[C@H](Cc4cnc[nH]4)NC(=O)[C@H](CCCCN)NC3=O)C(=O)N[C@@H](CCCNC(=N)N)C(=O)N[C@@H](CCCCN)C(=O)N[C@@H]([C@@H](C)O)C(=O)N2)NC(=O)[C@H](CCCNC(=N)N)NC(=O)[C@H](CO)NC(=O)[C@H](CCCCN)NC(=O)[C@@H]2CCCN2C(=O)[C@H]([C@@H](C)CC)NC(=O)[C@H]([C@@H](C)O)NC(=O)[C@H](CC(=O)O)NC1=O | 0.222 nM | 0.248 nM
CC[C@H](C)[C@@H]1NC(=O)[C@@H](NC(=O)[C@H](CO)NC(=O)[C@@H](N)CCCNC(=N)N)CSSC[C@@H](C(=O)O)NC(=O)[C@H]([C@@H](C)O)NC(=O)CNC(=O)[C@@H]2CSSC[C@@H]3NC(=O)[C@H](CCC(N)=O)NC(=O)[C@H](Cc4ccccc4)NC(=O)[C@H](C)NC(=O)[C@H]([C@@H](C)O)NC(=O)[C@H](CSSC[C@H](NC(=O)[C@H](Cc4ccccc4)NC(=O)[C@H](CO)NC(=O)[C@H](CCCNC(=N)N)NC(=O)[C@H](CCCNC(=N)N)NC(=O)[C@H](Cc4ccc(O)cc4)NC(=O)[C@H](CCCCN)NC(=O)[C@H](CCSC)NC(=O)[C@H](CO)NC(=O)[C@H](Cc4cnc[nH]4)NC(=O)[C@H](CCCCN)NC3=O)C(=O)N[C@@H](CCCNC(=N)N)C(=O)N[C@@H](CCCCN)C(=O)N[C@@H]([C@@H](C)O)C(=O)N2)NC(=O)[C@H](CCCNC(=N)N)NC(=O)[C@H](CO)NC(=O)[C@H](CCCCN)NC(=O)[C@@H]2CCCN2C(=O)[C@H]([C@@H](C)CC)NC(=O)[C@H]([C@@H](C)O)NC(=O)[C@H](CC(=O)O)NC1=O | 0.137 nM | 0.194 nM
CC[C@H](C)[C@@H]1NC(=O)[C@H]([C@@H](C)O)NC(=O)[C@H](CC(=O)O)NC(=O)[C@H](CCCNC(=N)N)NC(=O)[C@@H](NC(=O)[C@H](CO)NC(=O)[C@@H](N)CCCNC(=N)N)CSSC[C@@H](C(=O)O)NC(=O)[C@H]([C@@H](C)O)NC(=O)CNC(=O)[C@@H]2CSSC[C@@H]3NC(=O)[C@H](CCC(N)=O)NC(=O)[C@H](Cc4ccccc4)NC(=O)[C@H](C)NC(=O)[C@H]([C@@H](C)O)NC(=O)[C@H](CSSC[C@H](NC(=O)[C@H](Cc4ccccc4)NC(=O)[C@H](CO)NC(=O)[C@H](CC(C)C)NC(=O)[C@H](CCCNC(=N)N)NC(=O)[C@H](Cc4ccc(O)cc4)NC(=O)[C@H](CCCCN)NC(=O)[C@H](CCSC)NC(=O)[C@H](CO)NC(=O)[C@H](Cc4cnc[nH]4)NC(=O)[C@H](CCCCN)NC3=O)C(=O)N[C@@H](CCCNC(=N)N)C(=O)N[C@@H](CCCCN)C(=O)N[C@@H]([C@@H](C)O)C(=O)N2)NC(=O)[C@H](CCCNC(=N)N)NC(=O)[C@H](CO)NC(=O)[C@H](CCCCN)NC(=O)[C@@H]2CCCN2C1=O | 0.098 nM | 0.123 nM
CC[C@H](C)[C@@H]1NC(=O)[C@@H](NC(=O)[C@H](CO)NC(=O)[C@@H](N)CCCNC(=N)N)CSSC[C@@H](C(=O)O)NC(=O)[C@H]([C@@H](C)O)NC(=O)CNC(=O)[C@@H]2CSSC[C@@H]3NC(=O)[C@H](CCN)NC(=O)[C@H](Cc4ccccc4)NC(=O)[C@H](C)NC(=O)[C@H]([C@@H](C)O)NC(=O)[C@H](CSSC[C@H](NC(=O)[C@H](Cc4ccccc4)NC(=O)[C@H](CO)NC(=O)[C@H](CC(C)C)NC(=O)[C@H](CCCNC(=N)N)NC(=O)[C@H](Cc4ccc(O)cc4)NC(=O)[C@H](CCCCN)NC(=O)[C@H](CCSC)NC(=O)[C@H](CO)NC(=O)[C@H](Cc4c[nH]cn4)NC(=O)[C@H](CCCCN)NC3=O)C(=O)N[C@@H](CCCNC(=N)N)C(=O)N[C@@H](CCCCN)C(=O)N[C@@H]([C@@H](C)O)C(=O)N2)NC(=O)[C@H](CCCNC(=N)N)NC(=O)[C@H](CO)NC(=O)[C@H](CCCCN)NC(=O)[C@@H]2CCCN2C(=O)[C@H]([C@@H](C)CC)NC(=O)[C@H]([C@@H](C)O)NC(=O)[C@H](CC(=O)O)NC1=O | 0.086 nM | 0.223 nM
